Numbered stars: 1 amine (or outer) side, 2 acyl side, 3 side chain; on linkers, the order of the positions; unused ones are H or OH. Bridge positions count the residues as written; N and C are the ends. Square brackets hold non-standard residues; d marks the D form. Peptide text beside a SMILES is read from it. * marks the point of attachment. ξ: configuration not given here. X25 = N#CCCc1ccc(-c2ccc(C[C@H](N[*:1])C(=O)[*:2])cc2)cc1; Phe(4-COOH) = N[C@@H](Cc1ccc(C(=O)O)cc1)C(=O)O; Bip = N[C@@H](Cc1ccc(-c2ccccc2)cc1)C(=O)O; Phe(3-Me) = Cc1cccc(C[C@H](N)C(=O)O)c1; βAsp = O=C(O)[C@H](CC(=O)[*:2])N[*:1]; 4Pal = N[C@@H](Cc1ccncc1)C(=O)O; Cha = N[C@@H](CC1CCCCC1)C(=O)O; Cit = NC(=O)NCCC[C@H](N)C(=O)O; Ile(3ξ) = CCC(C)[C@H](N)C(=O)O; Thr(3ξ) = CC(O)[C@H](N)C(=O)O; NMeNle = CCCC[C@H](NC)C(=O)O; Dap(Me) = CNC[C@H](N)C(=O)O; ξCha = NC(CC1CCCCC1)C(=O)O; Carboxymethyl = O=C(O)C*; NMeA = CN[C@@H](C)C(=O)O; Orn = NCCC[C@H](N)C(=O)O; Pra = C#CC[C@H](N)C(=O)O; dAbu = CC[C@@H](N)C(=O)O; Dab = NCC[C@H](N)C(=O)O

The target in one test is T1, PE-labeled human PD-L1-Ig binding to Jurkat cell line over-expressing human PD-1 (Jurkat-PD-1) (Homo sapiens, UniProt Q15116).
T1 construct: expressed in transfected cells; host or cells: Jurkat
T1 sequence (Q15116 25-288): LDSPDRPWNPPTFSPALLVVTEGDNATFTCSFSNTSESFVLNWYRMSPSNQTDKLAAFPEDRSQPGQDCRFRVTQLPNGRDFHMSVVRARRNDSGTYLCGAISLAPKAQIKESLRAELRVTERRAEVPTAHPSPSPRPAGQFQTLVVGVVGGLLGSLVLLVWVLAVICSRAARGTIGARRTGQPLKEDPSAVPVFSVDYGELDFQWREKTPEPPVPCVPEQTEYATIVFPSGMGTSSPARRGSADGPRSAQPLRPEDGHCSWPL
The test is described as follows: Jurkat-PD-1 Cell Binding High-Content Screening Assay (CBA): Method 1. To be noted: Jurkat-PD-1 cells, PE-labeled PD-L1-Ig; μM; read-out: CBA Method 1 μM.
On to `Cc1cccc(C[C@@H]2NC(=O)[C@H](CC(=O)O)NC(=O)[C@H](Cc3ccc(OCC(=O)O)cc3)NC(=O)[C@H](C(C)O)NC(=O)CSC[C@@H](C(=O)N[C@@H](CO)C(=O)NCC(=O)N[C@@H](CO)C(N)=O)NC(=O)[C@H](C(C)O)NC(=O)[C@H](C(C)C)NC(=O)C(CC3CCCCC3)NC(=O)[C@H](CCN)NC(=O)[C@@H](CC(C)C)NC(=O)[C@H](C)N(C)C(=O)[C@H](Cc3ccc(OCC(=O)O)cc3)NC(=O)[C@H](Cc3ccc(-c4ccccc4)cc3)NC(=O)[C@H](Cc3ccc(C(=O)O)cc3)NC2=O)c1` (stereo partly drawn) [Example 5004] ({CH2CO}-[Thr(3ξ)]Y(Carboxymethyl)D[Phe(3-Me)][Phe(4-COOH)][Bip]Y(Carboxymethyl)[NMeA][dL][Dab][ξCha]V[Thr(3ξ)]CSGS-NH2; thioether N-14), for which the IC50 worked out at 0.03 µM. Same read-out and setting: the figure for `CCC(C)[C@@H]1NC(=O)[C@H](Cc2ccc(-c3ccccc3)cc2)NC(=O)[C@H](C(C)C)NC(=O)[C@H](Cc2c[nH]c3ccccc23)NC(=O)[C@H](CC(=O)O)NC(=O)[C@H](Cc2ccc(OCC(=O)O)cc2)NC(=O)[C@H](C(C)O)NC(=O)CSC[C@@H](C(=O)N[C@H](CO)C(=O)NCC(=O)N[C@@H](CO)C(N)=O)NC(=O)[C@H](CO)NC(=O)[C@H](C(C)C)NC(=O)C(CC2CCCCC2)NC(=O)[C@H](CCN)NC(=O)[C@@H](CC(C)C)NC(=O)[C@H](C)N(C)C1=O` (stereo partly drawn) [Example 5006] ({CH2CO}-[Thr(3ξ)]Y(Carboxymethyl)DWV[Bip][Ile(3ξ)][NMeA][dL][Dab][ξCha]VSC[dS]GS-NH2; thioether N-14) is 0.02 µM.

Still in this test, the particulars now being: Jurkat-hPD-1 cells, PE-labeled PD-L1-Ig 20 nM final; read-out: Jurkat HPDL1 PD1 IC50 (uM) (Method 1).
On to `CC(C)C[C@@H]1NC(=O)[C@H](CCN)NC(=O)[C@@H](CC(C)C)NC(=O)[C@H](C)N(C)C(=O)[C@H](CCCNC(=N)N)NC(=O)[C@H](Cc2ccc(-c3ccccc3)cc2)NC(=O)[C@H](C(C)C)NC(=O)[C@H](Cc2c[nH]c3ccccc23)NC(=O)[C@H](CC(=O)O)NC(=O)[C@H](Cc2ccc(O)cc2)NC(=O)[C@H](CCCN)NC(=O)CSC[C@@H](C(=O)N[C@@H](C)C(N)=O)NC(=O)[C@H]([C@@H](C)O)NC(=O)[C@H](C(C)C)NC1=O` [Compound 1341] ({CH2CO}-[Orn]YDWV[Bip]R[NMeA][dL][Dab]LVTCA-NH2; thioether N-14), for which the IC50 was 0.05 µM. Same read-out and setting: the figure for `CC[C@H]1NC(=O)[C@H](C)N(C)C(=O)[C@H](C(C)C)NC(=O)[C@H](Cc2ccc(-c3ccccc3)cc2)NC(=O)[C@H](CC(C)C)NC(=O)[C@H](Cc2c[nH]c3ccccc23)NC(=O)[C@H](CC(=O)O)NC(=O)[C@H](Cc2ccc(O)cc2)NC(=O)[C@H](Cc2ccccc2)NC(=O)CSC[C@@H](C(=O)N[C@@H](C)C(N)=O)NC(=O)[C@H](CO)NC(=O)[C@H](C(C)C)NC(=O)[C@H](CC(C)C)NC(=O)[C@H](CC(N)=O)NC1=O` [Compound 1763] ({CH2CO}-FYDWL[Bip]V[NMeA][dAbu]NLVSCA-NH2; thioether N-14) is 0.04 µM; for `C#CC[C@H](NC(=O)C[C@H](NC(=O)[C@@H]1CSCC(=O)N[C@@H](Cc2ccc(OCC(=O)O)cc2)C(=O)N[C@@H](Cc2ccncc2)C(=O)N[C@@H](CC(=O)O)C(=O)N[C@@H](Cc2c[nH]c3ccccc23)C(=O)N[C@@H](CC(C)C)C(=O)N[C@@H](Cc2ccc(-c3ccccc3)cc2)C(=O)N[C@@H](C(C)C)C(=O)N(C)[C@@H](C)C(=O)N[C@H](CC(C)C)C(=O)N[C@@H](CCN)C(=O)N[C@@H](CC2CCCCC2)C(=O)N[C@@H](C(C)C)C(=O)N[C@@H](CO)C(=O)N1)C(=O)O)C(N)=O` [Compound 1645] ({CH2CO}-Y(Carboxymethyl)[4Pal]DWL[Bip]V[NMeA][dL][Dab][Cha]VSC[βAsp][Pra]-NH2; thioether N-14) it is 0.01 µM; for `CCC(C)[C@@H]1NC(=O)[C@H](Cc2ccc(-c3ccccc3)cc2)NC(=O)[C@H](C(C)C)NC(=O)[C@H](Cc2c[nH]c3ccccc23)NC(=O)[C@H](CC(=O)O)NC(=O)[C@H](Cc2ccc(O)cc2)NC(=O)[C@H](Cc2ccncc2)NC(=O)CSC[C@@H](C(=O)N[C@@H](C)C(N)=O)NC(=O)[C@H](C(C)O)NC(=O)[C@H](C(C)C)NC(=O)[C@H](CC2CCCCC2)NC(=O)[C@H](Cc2c[nH]cn2)NC(=O)[C@@H](CC(C)C)NC(=O)[C@H](C)N(C)C1=O` (stereo partly drawn) [Compound 2093] ({CH2CO}-[4Pal]YDWV[Bip][Ile(3ξ)][NMeA][dL]H[Cha]V[Thr(3ξ)]CA-NH2; thioether N-14) it is 0.11 µM.

Regarding `CCC(C)[C@@H]1NC(=O)[C@H](Cc2ccc(-c3ccccc3)cc2)NC(=O)[C@H](CC(C)C)NC(=O)[C@H](Cc2c[nH]c3ccccc23)NC(=O)[C@H](CC(=O)O)NC(=O)[C@H](Cc2ccc(C(=O)O)cc2)NC(=O)[C@H](Cc2ccc(OCC(=O)O)cc2)NC(=O)CSC[C@@H](C(=O)N[C@@H](C)C(N)=O)NC(=O)[C@H](CO)NC(=O)[C@H](C(C)C)NC(=O)[C@H](CC2CCCCC2)NC(=O)[C@H](CNC)NC(=O)[C@@H](CC(C)C)NC(=O)[C@H](C)N(C)C1=O` (stereo partly drawn) [Compound 2068] ({CH2CO}-Y(Carboxymethyl)[Phe(4-COOH)]DWL[Bip][Ile(3ξ)][NMeA][dL][Dap(Me)][Cha]VSCA-NH2; thioether N-14), the IC50 was determined as 0.03 µM. On the same count and under the same terms, the figure for `CC(C)C[C@@H]1NC(=O)[C@H](CCN)NC(=O)[C@@H](CC(C)C)NC(=O)[C@H](C)N(C)C(=O)[C@H](CCCN)NC(=O)[C@H](Cc2ccc(-c3ccccc3)cc2)NC(=O)[C@H](C(C)C)NC(=O)[C@H](Cc2c[nH]c3ccccc23)NC(=O)[C@H](CC(=O)O)NC(=O)[C@H](Cc2ccc(C(=O)O)cc2)NC(=O)[C@H](CC(N)=O)NC(=O)CSC[C@@H](C(=O)N[C@@H](C)C(N)=O)NC(=O)[C@H]([C@@H](C)O)NC(=O)[C@H](C(C)C)NC1=O` [Compound 1386] ({CH2CO}-N[Phe(4-COOH)]DWV[Bip][Orn][NMeA][dL][Dab]LVTCA-NH2; thioether N-14) is 0.05 µM; for `CC(C)C[C@@H]1NC(=O)[C@H](CCN)NC(=O)[C@@H](CC(C)C)NC(=O)[C@H](C)N(C)C(=O)[C@H](CCCNC(N)=O)NC(=O)[C@H](Cc2ccc(-c3ccccc3)cc2)NC(=O)[C@H](C(C)C)NC(=O)[C@H](Cc2c[nH]c3ccccc23)NC(=O)[C@H](CC(=O)O)NC(=O)[C@H](Cc2ccc(O)cc2)NC(=O)[C@H](CC(N)=O)NC(=O)CSC[C@@H](C(=O)N[C@@H](CCC(=O)O)C(N)=O)NC(=O)[C@H](CO)NC(=O)[C@H](C(C)C)NC1=O` [Compound 1233] ({CH2CO}-NYDWV[Bip][Cit][NMeA][dL][Dab]LVSCE-NH2; thioether N-14) it is 0.05 µM.

Take `CCCC[C@H]1C(=O)N[C@@H](Cc2ccc(C(=O)O)cc2)C(=O)N[C@@H](CC(=O)O)C(=O)N[C@@H](Cc2c[nH]c3ccccc23)C(=O)N[C@@H](C(C)C)C(=O)N[C@@H](Cc2ccc(-c3ccccc3)cc2)C(=O)N[C@@H](C(C)O)C(=O)N(C)[C@@H](C)C(=O)N[C@H](CC(C)C)C(=O)N[C@@H](CCN)C(=O)N[C@@H](CC2CCCCC2)C(=O)N[C@@H](C(C)C)C(=O)N[C@@H](C(C)O)C(=O)N[C@H](C(=O)N[C@@H](CCN)C(N)=O)CSCC(=O)N1C` (stereo partly drawn) [Compound 2206] ({CH2CO}-[NMeNle][Phe(4-COOH)]DWV[Bip][Thr(3ξ)][NMeA][dL][Dab][Cha]V[Thr(3ξ)]C[Dab]-NH2; thioether N-14): the IC50 came out at 0.04 µM. Same read-out and setting: the figure for `CC(C)C[C@@H]1NC(=O)[C@H](CCN)NC(=O)[C@@H](CC(C)C)NC(=O)[C@H](C)N(C)C(=O)[C@H](CCC(=O)O)NC(=O)[C@H](Cc2ccc(-c3ccccc3)cc2)NC(=O)[C@H](C(C)C)NC(=O)[C@H](Cc2c[nH]c3ccccc23)NC(=O)[C@H](CC(=O)O)NC(=O)[C@H](Cc2ccc(O)cc2)NC(=O)[C@H](CC(N)=O)NC(=O)CSC[C@@H](C(=O)N[C@@H](C)C(N)=O)NC(=O)[C@H](CO)NC(=O)[C@H](C(C)C)NC1=O` [Compound 1248] ({CH2CO}-NYDWV[Bip]E[NMeA][dL][Dab]LVSCA-NH2; thioether N-14) is 0.07 µM; for `Cc1cccc(C[C@@H]2NC(=O)[C@H](CC(=O)O)NC(=O)[C@H](Cc3ccc(OCC(=O)O)cc3)NC(=O)[C@H]([C@@H](C)O)NC(=O)CSC[C@@H](C(N)=O)NC(=O)[C@H](CCCN)NC(=O)[C@H](C(C)C)NC(=O)[C@H](CC3CCCCC3)NC(=O)[C@H](CCN)NC(=O)[C@@H](CC(C)C)NC(=O)[C@H](C)N(C)C(=O)[C@H](Cc3ccc(OCC(=O)O)cc3)NC(=O)[C@H](Cc3ccc(-c4ccccc4)cc3)NC(=O)[C@H](Cc3ccc(OCC(=O)O)cc3)NC2=O)c1` [Compound 1674] ({CH2CO}-TY(Carboxymethyl)D[Phe(3-Me)]Y(Carboxymethyl)[Bip]Y(Carboxymethyl)[NMeA][dL][Dab][Cha]V[Orn]C-NH2; thioether N-14) it is 0.07 µM. On the same count and under the same terms, the figure for `CC(C)C[C@@H]1NC(=O)CSC[C@@H](C(=O)NCC(N)=O)NC(=O)[C@H](CO)NC(=O)[C@H](C(C)C)NC(=O)[C@H](CC(C)C)NC(=O)[C@H](CC(N)=O)NC(=O)[C@H](CC(N)=O)NC(=O)[C@H](C)N(C)C(=O)[C@H](C(C)C)NC(=O)[C@H](Cc2ccc(-c3ccccc3)cc2)NC(=O)[C@H](CC(C)C)NC(=O)[C@H](Cc2c[nH]c3ccccc23)NC(=O)[C@H](CC(=O)O)NC(=O)[C@H](Cc2ccc(O)cc2)NC1=O` [Compound 1815] ({CH2CO}-LYDWL[Bip]V[NMeA]NNLVSCG-NH2; thioether N-14) is 0.31 µM; for `CC(C)C[C@@H]1NC(=O)[C@H](CCN)NC(=O)[C@@H](CC(C)C)NC(=O)[C@H](C)N(C)C(=O)[C@H](CCCNC(=N)N)NC(=O)[C@H](Cc2ccc(-c3ccc(CCC#N)cc3)cc2)NC(=O)[C@H](C(C)C)NC(=O)[C@H](Cc2c[nH]c3ccccc23)NC(=O)[C@H](CC(=O)O)NC(=O)[C@H](Cc2ccc(O)cc2)NC(=O)[C@H](CC(N)=O)NC(=O)CSC[C@@H](C(=O)N[C@@H](C)C(N)=O)NC(=O)[C@H]([C@@H](C)O)NC(=O)[C@H](C(C)C)NC1=O` [Compound 1213] ({CH2CO}-NYDWV[X25]R[NMeA][dL][Dab]LVTCA-NH2; thioether N-14) it is 0.25 µM.

Source of the values: patent publication US20240409585A1, “MACROCYCLIC IMMUNOMODULATORS” (priority 2021, published 2024).
